Experiments:
[1] = molecular target: T1, IDH1 (isocitrate dehydrogenase 1) (Homo sapiens, UniProt O75874); assay: 1H NMR of cofactor released by thermal denaturation; native MS; electrochemical retention; format: binding; settings: copurified; resting state, no substrate; part of a NADP+/NADPH mixture
T1 construct: recombinant, purified; copurifies with NADP(H)

[2] = molecular target: T2, IDH1 (isocitrate dehydrogenase 1) (Homo sapiens, UniProt O75874, R132H); assay: non-denaturing mass spectrometry; 1H NMR after denaturation; format: binding; settings: copurified; NMR identifies NADPH only; resting state, no substrate
T2 construct: recombinant, purified; copurifies with NADP(H)
T2 sequence (O75874 whole entry R132H): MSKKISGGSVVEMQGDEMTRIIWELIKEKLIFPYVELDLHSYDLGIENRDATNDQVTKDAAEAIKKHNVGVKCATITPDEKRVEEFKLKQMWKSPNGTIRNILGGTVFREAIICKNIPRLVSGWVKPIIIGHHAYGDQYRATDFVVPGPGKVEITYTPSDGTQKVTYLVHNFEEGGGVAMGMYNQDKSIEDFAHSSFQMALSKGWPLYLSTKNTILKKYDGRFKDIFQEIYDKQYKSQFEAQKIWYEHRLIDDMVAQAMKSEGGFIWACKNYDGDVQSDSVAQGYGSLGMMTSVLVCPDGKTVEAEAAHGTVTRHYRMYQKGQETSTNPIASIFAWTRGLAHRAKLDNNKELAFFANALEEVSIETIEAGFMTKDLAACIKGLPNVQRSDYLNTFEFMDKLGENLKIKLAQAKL

[3] = molecular target: T2, IDH1 (isocitrate dehydrogenase 1); assay: electrochemical retention after buffer exchange and potential switch; format: biochemical; settings: nanoconfined with FNR; resting state; binds much less tightly than NADPH; pH 8, 10 mM MgCl2
[4] = molecular target: T3, Ferredoxin NADP+ reductase (FNR) (Chlamydomonas reinhardtii, UniProt P53991); assay: 1H NMR of cofactor released by denaturation; format: binding; settings: prosthetic group
T3 construct: gene PETH; recombinant, purified; 39 kDa; FAD flavoprotein
T3 sequence (P53991 36-354): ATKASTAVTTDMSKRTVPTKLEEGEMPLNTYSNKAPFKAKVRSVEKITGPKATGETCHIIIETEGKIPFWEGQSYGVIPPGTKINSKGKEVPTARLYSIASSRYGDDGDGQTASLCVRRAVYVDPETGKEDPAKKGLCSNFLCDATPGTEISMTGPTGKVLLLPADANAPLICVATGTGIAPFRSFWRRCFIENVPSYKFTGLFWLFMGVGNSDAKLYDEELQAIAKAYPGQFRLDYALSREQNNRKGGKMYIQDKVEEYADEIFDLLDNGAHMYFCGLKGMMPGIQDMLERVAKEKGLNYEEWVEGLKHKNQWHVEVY

T1 sequence (O75874 whole entry): as the sequence (O75874 whole entry R132H) above, with H132R counted along it

Row | Structure (SMILES) | 1H NMR of cofactor released by thermal denaturation; native MS; electrochemical [1] | NADP(H) active site occupancy [2] | electrochemical retention after buffer exchange and potential switch [3] | 1H NMR of cofactor released by denaturation [4]
1 | NC(=O)C1=CN([C@@H]2O[C@H](COP(=O)(O)OP(=O)(O)OC[C@H]3O[C@@H](n4cnc5c(N)ncnc54)[C@H](OP(=O)(O)O)[C@@H]3O)[C@@H](O)[C@H]2O)C=CC1 [NADPH] | wild-type IDH1 (Fig. 1A) copurified with a mixture of NADP^+ and NADPH bound | ~ 97.5% | – | –
2 | NC(=O)c1ccc[n+]([C@@H]2O[C@H](COP(=O)(O)OP(=O)(O)OC[C@H]3O[C@@H](n4cnc5c(N)ncnc54)[C@H](OP(=O)(O)O)[C@@H]3O)[C@@H](O)[C@H]2O)c1 [NADP^+] | wild-type IDH1 (Fig. 1A) copurified with a mixture of NADP^+ and NADPH bound | – | IDH1 R132H binds NADP^+ much less tightly than NADPH | –
3 | Cc1cc2nc3c(=O)[nH]c(=O)nc-3n(C[C@H](O)[C@H](O)[C@H](O)COP(=O)(O)OP(=O)(O)OC[C@H]3O[C@@H](n4cnc5c(N)ncnc54)[C@H](O)[C@@H]3O)c2cc1C [flavin adenine dinucleotide] | – | – | – | release of its prosthetic group, flavin adenine dinucleotide (FAD), upon denaturation
